Data on 12 molecules can be found in the RepoRT retention time repository (doi:10.1016/j.jchromb.2020.122105).

Molecules are shown by their SMILES.

What all share (conditions): stereoisomer not certain
A short description of data set [1]: RP, Waters CORTECS T3, 100 × 2.1 mm, 2.7 µm, 0.3 mL/min, estimated dead time 0.73 min; A: water + 0.1% formic acid, pH 3; B: methanol + 0.1% formic acid, pH 3; gradient (min/%B) 0/0 1/0 6/5 30/100 35/100 35.1/0 40/0.
Data set [2] is described as follows: HILIC, Waters XBridge BEH Amide, 100 × 2.1 mm, 2.5 µm, 0.5 mL/min, estimated dead time 0.44 min; A: water + 0.1% acetic acid + 10 mM ammonium acetate, pH 4; B: 5% water + 95% acetonitrile + 0.1% acetic acid + 10 mM ammonium acetate, pH 4; gradient (min/%B) 0/95 5/95 20/57 25/57 30/95 40/95.
Data set [3] in a line: RP, Waters CORTECS T3, 100 × 2.1 mm, 2.7 µm, 0.25 mL/min, estimated dead time 0.88 min; A: water + 0.1% formic acid, pH 3; B: methanol + 0.1% formic acid, pH 3; gradient (min/%B) 0/5 5/5 25/95 25.1/100 35/100 35.1/5 45/5.
Data set [4] is described as follows: RP, Waters CORTECS T3, 100 × 2.1 mm, 2.7 µm, 0.2 mL/min, estimated dead time 1.1 min; A: water + 0.1% formic acid, pH 3; B: methanol + 0.1% formic acid, pH 3; gradient (min/%B) 0/0 1/0 6/5 30/100 35/100 35.1/0 40/0.
A short description of data set [5]: RP, Waters CORTECS T3, 100 × 2.1 mm, 2.7 µm, 0.2 mL/min, estimated dead time 1.1 min; A: water + 0.1% formic acid, pH 3; B: methanol + 0.1% formic acid, pH 3; gradient (min/%B) 0/5 5/5 25/95 25.1/100 35/100 35.1/5 45/5.
Data set [6] in a line: RP, Waters ACQUITY UPLC BEH C18, 100 × 2.1 mm, 1.7 µm, 0.2 mL/min, estimated dead time 1.1 min; A: water + 0.025% formic acid + 20 mM ammonium acetate + 0.055% ammonium hydroxide, pH 7; B: methanol; gradient (min/%B) 0/5 5/5 25/100 30/100 30.1/5 35/5.
Data set [7] is described as follows: RP, Waters ACQUITY UPLC BEH C18, 100 × 2.1 mm, 1.7 µm, 0.2 mL/min, estimated dead time 1.1 min; A: water + 0.1% formic acid, pH 3; B: methanol + 0.1% formic acid, pH 3; gradient (min/%B) 0/5 5/5 25/100 30/100 30.1/5 35/5.
Data set [8] can be described thus: HILIC, Merck SeQuant ZIC-HILIC, 150 × 2.1 mm, 5 µm, 0.75 mL/min, estimated dead time 0.44 min; A: water + 0.1% acetic acid + 10 mM ammonium acetate, pH 4; B: 5% water + 95% acetonitrile + 0.1% acetic acid + 10 mM ammonium acetate, pH 4; gradient (min/%B) 0/95 5/95 20/57 25/57 30/95 40/95.
The nature of data set [9]: RP, Waters CORTECS T3, 100 × 2.1 mm, 2.7 µm, 0.3 mL/min, estimated dead time 0.73 min; A: water + 0.1% formic acid, pH 3; B: methanol + 0.1% formic acid, pH 3; gradient (min/%B) 0/0 5/0 25/100 30/100 30.1/0 35/0.
Data set [10] is described as follows: RP, Waters ACQUITY UPLC BEH C18, 100 × 2.1 mm, 1.7 µm, 0.1 mL/min, estimated dead time 2.2 min; A: water + 0.1% formic acid, pH 3; B: methanol + 0.1% formic acid, pH 3; gradient (min/%B) 0/5 5/5 25/95 25.1/100 35/100 35.1/5 45/5.
The nature of data set [11]: RP, Waters ACQUITY UPLC BEH C18, 100 × 2.1 mm, 1.7 µm, 0.2 mL/min, estimated dead time 1.1 min; A: water + 0.025% formic acid + 20 mM ammonium acetate + 0.055% ammonium hydroxide, pH 7; B: methanol; gradient (min/%B) 0/5 5/5 25/100 30/100 30.1/5 35/5. The source holds these as a separate data set.
Data set [12] can be described thus: RP, Thermo Scientific Hypercarb, 150 × 2.1 mm, 5 µm, 0.1 mL/min, estimated dead time 3.3 min; A: water + 0.1% formic acid, pH 3; B: methanol + 0.1% formic acid, pH 3; gradient (min/%B) 0/5 5/5 20/100 35/100 35.1/5 45/5.
Data set [13] can be described thus: RP, Waters CORTECS T3, 100 × 2.1 mm, 2.7 µm, 0.3 mL/min, estimated dead time 0.73 min; A: water + 0.1% formic acid, pH 3; B: methanol + 0.1% formic acid, pH 3; gradient (min/%B) 0/0 5/0 25/100 30/100 30.1/0 35/0. This is another data set of the same source.
Data set [14] in a line: RP, Waters ACQUITY UPLC BEH C18, 100 × 2.1 mm, 1.7 µm, 0.1 mL/min, estimated dead time 2.2 min; A: water + 0.045% formic acid + 0.11% ammonium hydroxide, pH 7; B: methanol; gradient (min/%B) 0/5 5/5 25/95 25.1/100 35/100 35.1/5 45/5.
Data set [15] can be described thus: RP, Waters CORTECS T3, 100 × 2.1 mm, 2.7 µm, 0.3 mL/min, estimated dead time 0.73 min; A: water + 0.1% formic acid, pH 3; B: methanol + 0.1% formic acid, pH 3; gradient (min/%B) 0/5 5/5 25/95 25.1/100 35/100 35.1/5 45/5.
Data set [16] can be described thus: RP, Waters CORTECS T3, 100 × 2.1 mm, 2.7 µm, 0.3 mL/min, estimated dead time 0.73 min; A: water + 0.1% formic acid, pH 3; B: methanol + 0.1% formic acid, pH 3; gradient (min/%B) 0/5 5/5 25/100 30/100 30.1/5 35/5.
A short description of data set [17]: RP, Waters CORTECS T3, 100 × 2.1 mm, 2.7 µm, 0.2 mL/min, estimated dead time 1.1 min; A: water + 0.045% formic acid + 0.11% ammonium hydroxide, pH 7; B: methanol; gradient (min/%B) 0/5 5/5 25/95 25.1/100 35/100 35.1/5 45/5.
Data set [18] is described as follows: RP, Waters CORTECS T3, 100 × 2.1 mm, 2.7 µm, 0.25 mL/min, estimated dead time 0.88 min; A: water + 0.1% formic acid, pH 3; B: methanol + 0.1% formic acid, pH 3; gradient (min/%B) 0/0 1/0 6/5 30/100 35/100 35.1/0 40/0.
Data set [19] can be described thus: RP, Waters CORTECS T3, 100 × 2.1 mm, 2.7 µm, 0.3 mL/min, estimated dead time 0.73 min; A: water + 0.1% formic acid, pH 3; B: methanol + 0.1% formic acid, pH 3; gradient (min/%B) 0/0 1/0 6/5 30/100 35/100 35.1/0 40/0. This is another data set of the same source.
Data set [20] can be described thus: RP, Waters CORTECS T3, 100 × 2.1 mm, 2.7 µm, 0.1 mL/min, estimated dead time 2.2 min; A: water + 0.1% formic acid, pH 3; B: methanol + 0.1% formic acid, pH 3; gradient (min/%B) 0/0 1/0 6/5 30/100 35/100 35.1/0 40/0.
Data set [21] is described as follows: RP, Waters CORTECS T3, 100 × 2.1 mm, 2.7 µm, 0.1 mL/min, estimated dead time 2.2 min; A: water + 0.1% formic acid, pH 3; B: methanol + 0.1% formic acid, pH 3; gradient (min/%B) 0/5 5/5 25/95 25.1/100 35/100 35.1/5 45/5.
Data set [22] can be described thus: RP, Waters CORTECS T3, 100 × 2.1 mm, 2.7 µm, 0.2 mL/min, estimated dead time 1.1 min; A: water + 0.1% formic acid, pH 3; B: methanol + 0.1% formic acid, pH 3; gradient (min/%B) 0/0 1/0 6/5 30/100 35/100 35.1/0 40/0. This is another data set of the same source.
Data set [23] is described as follows: RP, Waters CORTECS T3, 100 × 2.1 mm, 2.7 µm, 0.15 mL/min, estimated dead time 1.5 min; A: water + 0.1% formic acid, pH 3; B: methanol + 0.1% formic acid, pH 3; gradient (min/%B) 0/0 1/0 6/5 30/100 35/100 35.1/0 40/0.
A short description of data set [24]: RP, Waters ACQUITY UPLC BEH C18, 100 × 2.1 mm, 1.7 µm, 0.1 mL/min, estimated dead time 2.2 min; A: water + 0.1% formic acid, pH 3; B: methanol + 0.1% formic acid, pH 3; gradient (min/%B) 0/5 5/5 25/100 30/100 30.1/5 35/5.

For the molecule `O=c1ccn(C2CC(O)C(COP(=O)(O)O)O2)c(=O)[nH]1` (stereo not drawn) [2'-DEOXYURIDINE 5'-MONOPHOSPHATE], the LC retention time is 0.92 min in [1]; 13.3 min in [2]; 1.08 min in data set [3]; 1.35 min in data set [4]; 2.67 min in [5].
`CC(C)=CC(=O)SCCNC(=O)CCNC(=O)C(O)C(C)(C)COP(=O)(O)OP(=O)(O)OCC1OC(n2cnc3c(N)ncnc32)C(O)C1OP(=O)(O)O` (stereo not drawn) [3-METHYLCROTONYL-COA]: the LC retention time in data set [6] is 8.78 min.
Consider `O=c1[nH]cc(CO)c(=O)[nH]1` [5-HYDROXYMETHYLURACIL], for which the LC retention time in data set [1] was 0.9 min; in data set [7], 1.41 min; in data set [3], 1.06 min.
`O=C(O)CCCCCCCCCO` [10-HYDROXYDECANOATE]: the LC retention time in data set [7] is 18.3 min; in data set [8], 1.13 min; in data set [3], 17.7 min; in [9] it was 17.3 min.
For the molecule `Nc1ncnc2c1ncn2C1OC(COP(=O)(O)OP(=O)(O)OC2OC(CO)C(O)C(O)C2O)C(O)C1O` (stereo not drawn) [ADENOSINE 5'-DIPHOSPHOGLUCOSE], the LC retention time is 0.92 min in data set [1]; 1.56 min in data set [7]; 1.08 min in [3]; 1.35 min in data set [4]; 0.89 min in [9].
In the case of `OCC1OC(OCC2OC(OC3(CO)OC(CO)C(O)C3O)C(O)C(O)C2O)C(O)C(O)C1O` [D-(+)-RAFFINOSE], the LC retention time in data set [10] and in data set [5] was 2.67 min throughout.
Take `Cn1cncc1CC(NC(=O)CCN)C(=O)O` [L-ANSERINE]: the LC retention time in [2] was 15 min; in data set [11], 1.42 min; in data set [5], 2.43 min; in data set [12], 4.86 min; in data set [6], 1.41 min.
`COc1ccc2[nH]cc(CCNC(C)=O)c2c1` [MELATONIN]: the LC retention time is 13.6 min in [13]; 17.8 min in data set [14]; 13.1 min in [15]; 12.8 min in [16]; 0.63 min in data set [2]; 14.5 min in data set [17]. The LC retention time in data set [18] is 15.4 min; in data set [11], 14.4 min; in data set [19], 14.8 min; in data set [20], 14.4 min; in [21] it was 17.7 min; in data set [22], 16.2 min. For the same molecule, the LC retention time was 17.5 min in [23], 14.4 min in [6] and 17.6 min in data set [24].
Consider `CC(=O)NCC(=O)O` [N-ACETYLGLYCINE], for which the LC retention time was 0.95 min in data set [1], 1.46 min in data set [7], 11.2 min in data set [2] and 1.11 min in data set [3].
`O=CNCC(=O)O` [N-FORMYLGLYCINE]: the LC retention time in [9] was 0.91 min.
In the case of `Nc1ncnc2c1ncn2[C@@H]1O[C@H](CSCC[C@H]([NH3+])C(=O)[O-])[C@@H](O)[C@H]1O` [S-(5'-ADENOSYL)-L-HOMOCYSTEINE], the LC retention time in [7] is 1.38 min; in data set [15], 0.9 min; in [8], 12.3 min; in [18], 1.09 min; in data set [10], 2.67 min; in data set [5], 2.67 min. The LC retention time is 1.34 min in data set [22] and 2.74 min in data set [24].
Consider `O=c1[nH]c(=O)c2ncn(C3OC(COP(=O)(O)O)C(O)C3O)c2[nH]1` (stereo not drawn) [XANTHOSINE 5'-MONOPHOSPHATE], for which the LC retention time was 0.92 min in data set [1]; 1.08 min in data set [3]; 1.35 min in [4]; 2.67 min in data set [5]; 0.93 min in data set [9].
